Experimental data reported in patent publication US20190327961A1, “STABLE SOLID COMPOSITION BASED ON AN AROMATIC COMPOUND AND USES THEREOF” (priority 2016, published 2019).

Tests used:
E. coli [1] = assay: Antibacterial action compared with glutaraldehyde in 96-well microplates; type: cell-based; conditions: for bacterial growth (optical density, 600-nm wavelength): E. coli, 37° C., 24 hours
E. coli [2] = assay: Disinfection of an artificially contaminated fibroscope; conditions: fibroscope contaminated with E. coli, disinfectant at (1/10)
Penicillium digitatum = assay: Drenching and waxing of clementines infected by injection of spores; type: in vivo, clementines (Afourar variety); conditions: fruits waxed only (batches 3 and 4)
rot of clementines [3] = assay: Drenching and waxing of non-infected, experimentally damaged clementines; type: in vivo, clementines (Afourar variety); conditions: washed then waxed, 27° C.
rot of clementines [4] = assay: Tracking of the rot rate of clementines in a packing station; type: in vivo, clementines (Afourar variety)

SMILES: O=CCCCC=O [Glutaraldehyde, glutaraldehyde]
- inhibiting minimal concentration (CMI) (E. coli [1]; E. coli suspension on the order of 10^8 UFC/ml, expressed as dilution): obtained only with the pure disinfectant
- bacterial growth (optical density, 600-nm wavelength) (E. coli [1]; concentration 1): 0
- bacterial growth (optical density, 600-nm wavelength) (E. coli [1]; concentration 1/10): 0.13 ± 0.002
- bacterial growth (optical density, 600-nm wavelength) (E. coli [1]; concentration 1/100): 0.15 ± 0.002
- bacterial growth (optical density, 600-nm wavelength) (E. coli [1]; concentration 1/250): 0.17 ± 0.003
- bacterial growth (optical density, 600-nm wavelength) (E. coli [1]; concentration 1/500): 0.20 ± 0.002
- bacterial growth (optical density, 600-nm wavelength) (E. coli [1]; concentration 1/750): 0.20 ± 0.002
- bacterial growth (optical density, 600-nm wavelength) (E. coli [1]; concentration 1/1,000): 0.22 ± 0.012
- bacterial growth (optical density, 600-nm wavelength) (E. coli [1]; concentration 1/2,000): 0.28 ± 0.035
- bacterial growth (optical density, 600-nm wavelength) (E. coli [1]; concentration 1/4,000): 0.34 ± 0.007
- bacterial growth (optical density, 600-nm wavelength) (E. coli [1]; concentration 1/8,000): 0.47 ± 0.034
- bacterial growth (optical density, 600-nm wavelength) (E. coli [1]; concentration 1/16,000): 0.50 ± 0.005
- bacterial load After Disinfection (E. coli [2]): Layers
- bacterial load After Disinfection (E. coli [2]; listed as glutaraldehyde): layer of bacteria

SMILES: C=CCOC(Cn1ccnc1)c1ccc(Cl)cc1Cl (stereo not shown) [imazalil]
- day after infection on which rot begins (Penicillium digitatum; P. digitatum injected, 20° C.): starting from the fourth day
- diameter of the rot (Penicillium digitatum; after 7 days): 2.55 cm
- Percentage of the Rotten Surface on the Fruits (rot of clementines [3]; 4 D): 0%
- Percentage of the Rotten Surface on the Fruits (rot of clementines [3]; 6 D): 7%
- Percentage of the Rotten Surface on the Fruits (rot of clementines [3]; 8 D): 11%
- Percentage of the Rotten Surface on the Fruits (rot of clementines [3]; 10 D): 17%
- Percentage of the Rotten Surface on the Fruits (rot of clementines [3]; 12 D): 29%
- Percentage of the Rotten Surface on the Fruits (rot of clementines [3]; 14 D): 38%
- Percentage of the Rotten Surface on the Fruits (rot of clementines [3]; 16 D): 44%
- Percentage of Rotten Fruits (rot of clementines [4]; Storage at 8° C., Week 1): 2.63%
- Percentage of Rotten Fruits (rot of clementines [4]; Storage at 8° C., Week 2): 1.35%
- Percentage of Rotten Fruits (rot of clementines [4]; Storage at 8° C., Week 3): 2.16%
- Percentage of Rotten Fruits (rot of clementines [4]; Storage at 8° C., Week 4): 4.67%
- Percentage of Rotten Fruits (rot of clementines [4]; Storage at 25° C., Week 1): 7.78%
- Percentage of Rotten Fruits (rot of clementines [4]; Storage at 25° C., Week 2): 6.91%
- Percentage of Rotten Fruits (rot of clementines [4]; Storage at 25° C., Week 3): 9.68%
- Percentage of Rotten Fruits (rot of clementines [4]; Storage at 25° C., Week 4): 8.43%
